The supplement of paper PMC5579334
± gives the standard deviation of the averaged measurements.

Tests used:
[1] = system: HS-PSS; test: drug sensitivity score (DSS, CellTiter-Glo viability, 72 h) (DSS (dimensionless)); higher = more sensitive; extreme values may be limits of the assay
Outline: (§1)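 MPNST cell lines and primary human Schwann cells were seeded at 750–1000 cells per well into 384-well plates preprinted with each compound at five concentrations in 10-fold steps, then incubated 72 h at 37 °C, 5% CO2. CellTiter-Glo ATP luminescence gave viability, scaled between vehicle and positive-control wells, with duplicates averaged where present. Curves were fitted with a four-parameter logistic model. Percent inhibition refers to the top concentration, while drug sensitivity score and relative IC50, censored at the top concentration, come from these fits.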

[2] = system: HS-Sch-2; test: as above
Outline: as §1

[3] = system: HSC1 (primary human Schwann cells); test: as above
Outline: as §1

[4] = system: HSC2 (primary human Schwann cells); test: as above
Outline: as §1

[5] = system: S1507-2; test: as above
Outline: as §1

[6] = system: S462; test: as above
Outline: as §1

[7] = system: ST8814; test: as above
Outline: as §1

[8] = system: STS26T; test: as above
Outline: as §1

[9] = system: YST-1; test: as above
Outline: as §1

[10] = system: HS-PSS; test: drug sensitivity score (DSS, CellTox-Green cytotoxicity, 72 h) (DSS (dimensionless)); higher = more cytotoxic; extreme values may be limits of the assay
Outline: (§2)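 For 72 h at 37 °C, MPNST cell lines and primary human Schwann cells were exposed in 384-well plates to five 10-fold compound dilutions. CellTox-Green, added before seeding at a final 1:1000 dilution, gave fluorescence from DNA released by disrupted cells. Signals were scaled to vehicle and positive-control wells, cultures failing plate quality control were left out, and four-parameter logistic fits were applied. Relative IC50 and drug sensitivity score were derived from the fits, with IC50 censored at the top concentration.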

[11] = system: HSC1 (primary human Schwann cells); test: as above
Outline: as §2

[12] = system: HSC2 (primary human Schwann cells); test: as above
Outline: as §2

[13] = system: S1507-2; test: as above
Outline: as §2

[14] = system: ST8814; test: as above
Outline: as §2

[15] = system: STS26T; test: as above
Outline: as §2

[16] = system: HS-PSS; test: % inhibition of CellTiter-Glo viability at highest tested concentration (72 h), relative to DMSO and benzethonium chloride controls; higher = more inhibition
Outline: as §1

[17] = system: HS-Sch-2; test: as above
Outline: as §1

[18] = system: HSC1 (primary human Schwann cells); test: as above
Outline: as §1

[19] = system: HSC2 (primary human Schwann cells); test: as above
Outline: as §1

[20] = system: S1507-2; test: as above
Outline: as §1

[21] = system: S462; test: as above
Outline: as §1

[22] = system: ST8814; test: as above
Outline: as §1

[23] = system: STS26T; test: as above
Outline: as §1

[24] = system: YST-1; test: as above
Outline: as §1

Row | Compound | drug sensitivity score [1] | drug sensitivity score [2] | drug sensitivity score [3] | drug sensitivity score [4] | drug sensitivity score [5] | drug sensitivity score [6] | drug sensitivity score [7] | drug sensitivity score [8] | drug sensitivity score [9] | drug sensitivity score [10] | drug sensitivity score [11] | drug sensitivity score [12] | drug sensitivity score [13] | drug sensitivity score [14] | drug sensitivity score [15] | % inhibition [16] [%] | % inhibition [17] [%] | % inhibition [18] [%] | % inhibition [19] [%] | % inhibition [20] [%] | % inhibition [21] [%] | % inhibition [22] [%] | % inhibition [23] [%] | % inhibition [24] [%]
1 | O=C(c1cc(Cc2n[nH]c(=O)c3ccccc23)ccc1F)N1CCN(C(=O)C2CC2)CC1 [Olaparib] (max concentration tested 10000 nM) | 1.4 | 2.98 | 3.07 | 3.8 | 1.07 ± 0.15 | 4.85 ± 0.63 | 1.85 | 3.17 | 10.2 | 0 | 0 | 0.201 | 0.075 ± 0.11 | 1.56 | 1.04 | 23.2 | 32.8 | 38.1 | 39.3 | 25.7 ± 8.5 | 61.15 ± 0.35 | 41.6 | 46.3 | 69
2 | COC(=O)C[C@](O)(CCCC(C)(C)O)C(=O)O[C@@H]1C(OC)=C[C@]23CCCN2CCc2cc4c(cc2[C@H]13)OCO4 [Omacetaxine] (max concentration tested 10000 nM) | 23.1 | 26 | 25.4 | 26.6 | 25.33 ± 0.068 | 31.4 ± 0.81 | 25.2 | 27.9 | 36.4 | 1.24 | 8.49 | 11.7 | 13.4 ± 3 | 5 | 15 | 80.3 | 102 | 92 | 96.2 | 98.539 ± 0.044 | 99.121 ± 0.0091 | 88.6 | 98.6 | 99.5
3 | C=CCc1cccc(/C=N/NC(=O)CN2CCN(Cc3ccccc3)CC2)c1O [PAC-1] (max concentration tested 10000 nM) | 6.09 | 10.1 | 6.29 | 8.57 | 2.43 ± 0.66 | 3.7 ± 0.048 | 3.36 | 3.59 | 4.81 | 2.32 | 0 | 0 | 0 | 0.202 | 0 | 84.3 | 91.1 | 75.5 | 85.9 | 52.7 ± 7.1 | 73.6 ± 1.1 | 57.7 | 54.6 | 69.4
4 | O=C(Nc1cccnc1)N1CCC(Cc2cccc(Oc3ccc(C(F)(F)F)cn3)c2)CC1 [PF-3845] (max concentration tested 10000 nM) | 7.9 | 4.52 | 2.77 | 3.19 | 0 | 0.985 ± 0.1 | 0.0881 | 1.18 | 0.86 | 0 | 0 | 0.053 | 0 | 0 | 0 | 79.6 | 79 | 33.5 | 35.3 | 2.03 ± 3.1 | 20.3 ± 0.84 | 11.5 | 24.2 | 25.5
5 | COc1ccccc1S(=O)(=O)Nc1ccc2c(c1)CN(C)C(=O)N2 [PFI-1] (max concentration tested 10000 nM) | 2.11 | 5.21 | 3.78 | 4.03 | 6.21 ± 0.6 | 4.68 ± 0.9 | 5.94 | 3.53 | 4.93 | 0 | 0 | 0 | 2.07 ± 1.1 | 1.77 | 0 | 48.1 | 58.4 | 62.2 | 53.7 | 69.2 ± 3.9 | 53.6 ± 4.7 | 63.6 | 39.5 | 56.6
6 | CC(=O)O[C@H]1C(=O)[C@@]2(C)[C@H]([C@H](OC(=O)c3ccccc3)[C@]3(O)C[C@H](OC(=O)[C@H](O)[C@@H](NC(=O)c4ccccc4)c4ccccc4)C(C)=C1C3(C)C)[C@]1(OC(C)=O)CO[C@@H]1C[C@@H]2O [Paclitaxel] (max concentration tested 1000 nM) | 12.2 | 23.3 | 18 | 19.1 | 17.3 ± 0.6 | 28.8 ± 1.5 | 18.3 | 28.1 | 23.7 | 0 | 17.8 | 20.3 | 15.9 ± 1.1 | 18.6 | 33.8 | 45.7 | 93 | 70.6 | 73.9 | 84.6 ± 1 | 99.3 ± 1.5 | 94.5 | 99.6 | 81.6
7 | CC(=O)c1c(C)c2cnc(Nc3ccc(N4CCNCC4)cn3)nc2n(C2CCCC2)c1=O [Palbociclib] (max concentration tested 10000 nM) | 3.5 | 5.62 | 5.26 | 7.37 | 3.73 ± 0.74 | 8.25 ± 0.96 | 1.84 | 3.39 | 3.89 | 0 | 0 | 0 | 1.02 ± 1.1 | 0 | 0 | 41.6 | 68.8 | 31.6 | 45.6 | 38.8 ± 0.47 | 72.2 ± 6.1 | 28 | 36.7 | 44.5
8 | Cc1[nH]c2ccccc2c1CCNCc1ccc(/C=C/C(=O)NO)cc1 [Panobinostat] (max concentration tested 1000 nM) | 14.1 | 19.1 | 19.5 | 16.7 | 24.1 ± 0.61 | 22.7 ± 0.67 | 22 | 16.8 | 23.7 | 9.17 | 10.5 | 10.7 | 20.6 ± 0.84 | 16.1 | 11.1 | 93.9 | 101 | 101 | 101 | 104.5 ± 0.79 | 103.7 ± 0.37 | 101 | 98 | 99.9
9 | C/C(=C\c1csc(C)n1)[C@@H]1C[C@@H]2O[C@]2(C)CCC[C@H](C)[C@H](O)[C@@H](C)C(=O)C(C)(C)[C@@H](O)CC(=O)O1 [Patupilone] (max concentration tested 1000 nM) | 17.9 | 32.7 | 29.1 | 25.2 | 24.4 ± 1.7 | 37.7 ± 0.67 | 28.4 | 36.5 | 31 | 0 | 11.5 | 18.8 | 21.9 ± 2.8 | 23.9 | 36.6 | 42.2 | 91.9 | 70 | 73 | 80.9 ± 0.77 | 92.6 ± 0.95 | 84.4 | 96.8 | 78.1
10 | Cc1ccc(Nc2nccc(N(C)c3ccc4c(C)n(C)nc4c3)n2)cc1S(N)(=O)=O [Pazopanib] (max concentration tested 10000 nM) | 6.09 | 1.37 | 2.03 | 0.68 | 0.325 ± 0.46 | 0 | 0 | 0 | 0 | 0 | 0 | 0 | 0 | 0 | 0 | 42.6 | 20.7 | 20.7 | 15.2 | 9.04 ± 7 | -0.988 ± 9.1 | -2.02 | 7.27 | 0.99
11 | OC[C@H]1O[C@@H](n2cnc3c2N=CNC[C@H]3O)C[C@@H]1O [Pentostatin] (max concentration tested 10000 nM) | 0 | 0 | 0 | 0 | 0 | 0 | 0 | 0 | 1.08 | 0 | 0 | 0 | 0 | 0 | 0 | 6.06 | 8.51 | 4.07 | 0.65 | -4.44 ± 9.6 | -16.1 ± 7.5 | -0.684 | -3.81 | 9.08
12 | NS(=O)(=O)OC[C@@H]1C[C@@H](n2ccc3c(N[C@H]4CCc5ccccc54)ncnc32)C[C@@H]1O [Pevonedistat] (max concentration tested 10000 nM) | 23.8 | 28 | 12 | 14.3 | 17.3 ± 1 | 23.2 ± 1.4 | 20 | 12.7 | 15.2 | 10.7 | 4.84 | 3 | 16.7 ± 2.1 | 19.3 | 11.7 | 97 | 101 | 77.1 | 84.4 | 87.5 ± 1.1 | 96.07 ± 0.96 | 95.6 | 83.4 | 67.7
13 | CC[C@@H]1C(=O)OC[C@@H]1Cc1cncn1C [Pilocarpine] (max concentration tested 40000 nM) | 0 | 0.48 | 0 | 0 | 0.028 ± 0.04 | 0 | 0 | 0 | 0 | 0 | 0 | 0 | 0 | 0 | 0 | 3.53 | 14.2 | -5.47 | -5.33 | -0.921 ± 8.8 | -8.07 ± 3.1 | -5.43 | -5.95 | -0.64
